Literature values, collected in patent publication US9789076B2, “Bolus dose of hydroxycitric acid with glycerol” (GLYKON TECHNOLOGIES GROUP, LLC, priority 2014, dated 2017).
Where two headings read alike, the source gives them in different places.

Columns and labels:
[1] = rats, oral, 30 days
[2] = 0.33 mmoles/kg twice daily (total 0.66 mmoles/kg)

Row | Structure (SMILES) | inhibition of acetate or ethanol incorporation into fatty acid synthesis (fatty acid synthesis) | food consumption, percent of controls [1, 2] [%] | weight gain, percent of controls [1, 2] [%] | food consumption, percent of controls ([1]; 2.63 mmoles/kg as bolus) [%] | weight gain, percent of controls ([1]; 2.63 mmoles/kg as bolus) [%] | lowest effect dosage ([1]; given twice daily) [mmoles/kg body weight]
1 | O=C(O)CC(O)(C(=O)O)C(O)C(=O)O (single isomer, unassigned; (-)) [hydroxycitrate, (−)-Hydroxycitric acid] | no hydroxycitrate inhibition | – | – | – | – | –
2 | O=C([O-])CC(O)(C(=O)[O-])C(O)C(=O)[O-].[Na+].[Na+].[Na+] (stereo not drawn) [trisodium hydroxycitrate] | – | 87 | 62 | 83 | 64 | 0.33
